The values below come from the METLIN SMRT retention time set (Domingo-Almenara et al. 2019).

The data set can be described thus: gradient 5% acetonitrile 3 min, to 50% in 2 min, to 85% in 15 min, held 3 min, 100 µL/min. The settings on record: column: Zorbax Extend-C18 2.1 x 50 mm; eluents: water / acetonitrile, 0.1% formic acid. The method, boiled down: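 Retention time was recorded from adduct peaks, which were picked computationally and each inspected manually. Pure standards ran in mixtures of ~100 molecules on HPLC coupled to a quadrupole time-of-flight mass spectrometer, in positive and negative ionization mode, through a Zorbax Extend-C18 column (2.1 × 50 mm, 1.8 μm) at 100 μL/min. Eluents were water and acetonitrile, each with 0.1% formic acid.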
In turn, `CCN(CC)C(=O)c1cc(C)nc2c1c(=O)n(Cc1ccccc1C)c(=O)n2C` had an RP-LC retention time of 938 s.

Regarding `COc1ccc(NC(=O)c2sc(-c3cn(C)c4ncccc34)nc2C)cc1`, the RP-LC retention time worked out at 867 s.

Molecule `CCOC(=O)c1noc2ncnc(Nc3ccc(CN4CCN(CC)CC4)cc3)c12` yielded an RP-LC retention time of 638 s. As for `O=C(c1cc(-c2cccc(F)c2)ns1)N1CCCC1`, the figure is 924 s.

In turn, `CCCc1cc(N2CCN(C(=O)C3CCN(C(C)=O)CC3)CC2)nc2nnc(CC)n12` had an RP-LC retention time of 587 s. With `O=C(c1ccsc1)N1CCCCC1c1nncn1Cc1ccccc1` (centres undefined) the figure was 726 s. Turning to `O=S(=O)(c1ccccc1)N1CCC(c2noc(-c3ccc(F)cc3)n2)CC1`, the RP-LC retention time is 791 s. As for `Cn1cc(S(=O)(=O)N2CCC(C(=O)NCc3ccccn3)CC2)cc1C(=O)N1CCCC1`, the figure is 583 s; as for `O=C(Nc1cccnc1)C1CCCN(S(=O)(=O)c2cc(-c3noc(C4CCC4)n3)cs2)C1` (centres undefined), 893 s; as for `CCc1ccccc1NC(=O)N1CCC(n2cnc3c(C)cccc3c2=O)CC1`, 853 s. `CCOC(=O)Nc1nc2c(s1)CN(C(=O)Nc1ccc3c(c1)OCO3)CC2` came in with an RP-LC retention time of 670 s.

Turning to `Cc1cc(N2CCC(NS(=O)(=O)c3ccccc3F)C2=O)ccc1F` (centres undefined), the RP-LC retention time is 900 s.

The molecule `Cc1nnc(N2CCCC(C(=O)NCc3ccc(OC(C)C)cc3)C2)c2nn(-c3ccccc3)c(C)c12` (centres undefined) came in with an RP-LC retention time of 764 s. `O=C(Nc1ccc(-c2nc(-c3ccc(Cl)cc3)no2)cc1)c1ccco1`: the RP-LC retention time worked out at 1170 s. With `Cc1cnc(C2CN(C3CCCCCC3)C2)n1Cc1ccccc1` the figure was 588 s; with `COc1ccc2oc(-c3ccncc3)cc(=O)c2c1`, 701 s; with `CC(C)n1cnc(S(=O)(=O)N2CCCC(C(=O)Nc3ccc(F)cc3F)C2)c1` (centres undefined), 792 s. The molecule `O=C(NCc1ccc2c(c1)OCO2)c1nc2ccccn2c1-c1ccsc1` yielded an RP-LC retention time of 787 s. As for `COC1CCC12CCN(C(=O)Nc1ccc3c(c1)OCCO3)CC2` (centres undefined), the figure is 742 s; as for `CCOC(=O)CCNC(=O)N1CCc2c([nH]c3ccccc23)C1c1ccccc1F` (centres undefined), 941 s. As for `Cn1cc(CCNS(=O)(=O)c2cccc3nsnc23)c2cccnc21`, the figure is 671 s; as for `Cc1ccsc1C(=O)N1CCN(c2ccc(-c3nc(C)c(C)s3)cn2)CC1`, 1120 s.

Regarding `CCOC(=O)c1sc(NC(=O)c2cccc([N+](=O)[O-])c2)nc1-c1ccccc1`, the RP-LC retention time was found to be 1100 s. As for `COc1ccc(C(C)NC(=O)c2cn3ccc(C)cc3n2)cc1` (centres undefined), the figure is 645 s; as for `COc1ccc(NC(=O)NC2CCN(c3ccccc3)C2=O)cc1OC` (centres undefined), 683 s; as for `COc1cccc(-c2nc(-c3ccc(S(=O)(=O)N4CCC(C)CC4)cc3)no2)c1`, 1360 s. With `COc1cc(Br)ccc1NC(=O)C1CCCN(c2nc3ccccc3nc2OC)C1` (centres undefined) the figure was 1330 s; with `O=C1NCCCn2cc(S(=O)(=O)Nc3ccc(C(F)(F)F)cc3)cc21`, 728 s.

The molecule `CCc1nc2cc(-c3noc(C4(c5ccccc5)CC4)n3)ccc2o1` yielded an RP-LC retention time of 1220 s. With `O=C(CSc1ccc(N2CCC(C(=O)NC3CC3)CC2)nn1)NCc1ccc(F)cc1` the figure was 609 s; with `Cc1nc2cccnc2n1CCN1CCN(C(=O)Nc2ccccc2Cl)CC1`, 584 s. As for `CCOC(=O)C1CCN(C(=O)c2cn3c(n2)CN(CC)CC3)CC1`, the figure is 575 s; as for `Cc1ccc(CNC(=O)N2CCC(n3c(C(F)(F)F)nc4cccnc43)CC2)cc1`, 844 s. With `CC(C)(C)c1csc(-c2csc(S(=O)(=O)Nc3ccccc3)c2)n1` the figure was 1180 s.

As for `COc1ccc(C(=O)NC(CC(C)C)C(=O)Nc2nc3ccccc3[nH]2)cc1OC` (centres undefined), the RP-LC retention time came out at 705 s. `COc1ccc(-c2nc(C(=O)N3CCN(C)CC3)sc2-c2ccc(OC)cc2)cc1` came in with an RP-LC retention time of 748 s.

For `CCCc1cc(C2CCCN2C(=O)NCc2ccc(F)cc2)no1` (centres undefined), the RP-LC retention time came to 873 s. With `CCOCCOC(=O)c1cn(-c2ccc(OC)cc2)c(=O)c2ccccc12` the figure was 963 s; with `Cc1nc(C(=O)NC2CCCCC2)c(C)n1C1CCN(C)CC1`, 555 s; with `Cc1ccnc(NC(=O)C2CCN(S(=O)(=O)c3cc(C(=O)N4CCOCC4)cs3)CC2)c1`, 614 s. With `CCCN(CCC)S(=O)(=O)c1cccc(-c2cn3cc(C)ccc3n2)c1` the figure was 731 s; with `O=C(Cn1cccc(-c2nc(-c3ccccc3)no2)c1=O)Nc1ccc(Cl)c(C(F)(F)F)c1`, 1040 s. With `COc1ccc(NC(=O)N2CCC(n3cnc4ccc(Cl)cc4c3=O)CC2)c(OC)c1` the figure was 803 s; with `COc1ccc(N(CCC#N)S(=O)(=O)c2cccc3nsnc23)cc1`, 789 s; with `Cc1ccc(NC(=O)C2CCN(C(=O)C3Sc4ccccc4NC3=O)CC2)cc1F` (centres undefined), 804 s. Molecule `CCN1C(=O)c2cccnc2Sc2cc(NC(=O)c3ccc(F)cc3Cl)ccc21` gave an RP-LC retention time of 852 s. As for `CC(=O)CCCCn1cnc2c1c(=O)n(C)c(=O)n2C`, the figure is 672 s. As for `Cc1noc2ncnc(N3CCC(C(=O)NCCN(C)C)CC3)c12`, the figure is 567 s; as for `Cn1ncc2c3ccccc3n(CC(=O)N3CCC(N4CCCCC4)CC3)c2c1=O`, 613 s. With `CSc1cccc(NC(=O)Cn2cccc(-c3nc(-c4ccc(Br)cc4)no3)c2=O)c1` the figure was 1050 s; with `CCc1c(C2CCN(C(=O)c3ccc4c(c3)OCO4)CC2)noc1N`, 696 s.

The molecule `COc1ccccc1-c1noc(C2CCCN2C(=O)Nc2ccc(C)c(C)c2)n1` (centres undefined) showed an RP-LC retention time of 925 s. As for `Cc1ccc(NC(=O)C2CCCN2S(=O)(=O)c2cc3c(cc2Cl)NC(=O)CO3)cc1C` (centres undefined), the RP-LC retention time was determined as 832 s. As for `CCN(CC)CCNC(=O)C1CCCN(c2ccc(-c3ccc(C)cc3)nn2)C1` (centres undefined), the figure is 590 s; as for `COCCCNC(=O)C1CCCN(c2ncc(-c3cccc(F)c3)cn2)C1` (centres undefined), 863 s. With `CC(=O)Nc1ccc(NC(=O)Cn2ccc3ccc(-c4nnc(C)o4)cc32)cc1` the figure was 652 s. With `CC(C)c1ccc(-c2cc3c4nn(CC(=O)NCc5ccco5)c(=O)n4ccn3n2)cc1` the figure was 946 s; with `CCC1Oc2ccc(S(=O)(=O)N3CCC(C(=O)N(CC)c4cccc(C)c4)CC3)cc2NC1=O` (centres undefined), 974 s; with `Cc1ccc(N2C(=O)C3N=NN(Cc4nc(-c5cccc(C(F)(F)F)c5)no4)C3C2=O)cc1` (centres undefined), 1080 s. Molecule `CCOc1ccc(NC(=O)N2CCN(c3ccc(=O)n(-c4ccc(F)cc4)n3)CC2)cc1` had an RP-LC retention time of 804 s.

In the case of `CC(C)CNC(=O)C1Cn2cccc2C(=O)N1C` (centres undefined), the RP-LC retention time is 624 s.

For the molecule `COc1ccc(NC(=O)N2CC=C(c3cn(C)c4ncccc34)CC2)cc1OC`, the RP-LC retention time stood at 714 s. In turn, `CCCNC(=O)C1CCN(c2cc(SCC(=O)Nc3ccc(OC)cc3)ncn2)CC1` gave an RP-LC retention time of 692 s. With `CCC1Oc2ccc(Cl)cc2N(CC(=O)N2CCN(Cc3noc4ccccc34)CC2)C1=O` (centres undefined) the figure was 865 s.

As for `CCCc1noc(-c2ccc(-n3ncc(C(=O)NC(C)C)c3C)nc2)n1`, the RP-LC retention time is 970 s.

For `Cn1c(=O)n(CC(=O)N2CCOCC2)c(=O)c2cnc(-c3ccc(Cl)cc3)nc21`, the RP-LC retention time was found to be 859 s.

Regarding `O=C(Nc1cc(F)c2nc(N3CCOCC3)ccc2c1)c1cccs1`, the RP-LC retention time was determined as 787 s. As for `Cc1cc(C(=O)N2CCN(c3cccc(Cl)c3)CC2)n(-c2ccccc2)n1`, the figure is 1070 s; as for `O=C(c1ccc(OCC2CCCN2C(=O)C2CCC2)cc1)N1CCCC1` (centres undefined), 783 s; as for `CC(NC(=O)C1CCN(C(=O)c2ncn3c2COC(c2ccc(F)cc2)C3)CC1)c1ccccc1` (centres undefined), 809 s. The molecule `O=C(CN1CCC2(CC1)N=C(c1cccc(F)c1)C(=O)N2)Nc1ccc(Br)cc1F` showed an RP-LC retention time of 711 s. With `CN1CCC(N2CCN(S(=O)(=O)c3ccc(F)cc3)CC2)C1=O` (centres undefined) the figure was 552 s.

With `Cc1nnc(-c2nnc(N3CCN(c4ccccn4)CC3)c3ccccc23)o1`, the RP-LC retention time amounted to 611 s.

As for `CCOc1ccc(-c2cc3c(SCC)nccn3n2)cc1`, the RP-LC retention time was determined as 1300 s. As for `COc1ccc2nc(NC3=NCN(Cc4ccco4)CN3)nc(C)c2c1`, the figure is 640 s. As for `CN(C)CCCNC(=O)c1ccc2c(c1)nc1n2CCN(C2CCCCC2)C1=O`, the figure is 605 s. Molecule `COc1ccc(N2CCN(C(=O)c3cc4c(s3)CCN(C(C)=O)C4)CC2)cc1` came in with an RP-LC retention time of 674 s. As for `COC(=O)C(C)NC(=O)N1CCCN(C2=NS(=O)(=O)C(c3ccc(C)cc3)=C2C)CC1` (centres undefined), the figure is 736 s; as for `CCOc1ccc(N2C(=O)C3N=NN(Cc4nc(-c5ccc(OC)c(OC)c5)no4)C3C2=O)cc1` (centres undefined), 906 s.
